Results taken from patent US20070025930A1, “Dibenzoilmethane derivative compounds, the use thereof in the form of photoactivable solar filters and cosmetic compositions containing said compounds” (UNIVERSITE PAUL SABATIER TOULOUSE 3, priority 2003, published 2007).

Assays:
[1] = background statement on the reference screening agent; cited from earlier work
[2] = Tests of stability towards UV radiation: water-in-oil preparation on a quartz slide, UVA absorbance monitored under solar irradiation; type: physicochemical; conditions: for Variation in the absorbance at 356 nm: water-in-oil preparation on quartz slide; for decrease in UVA absorbance: preparation with 1% by mass of screening agents; for decrease of the absorbance at 356 nm: mean UV flux 4 mW/cm^2; for photostability compared with Parsol 1789: solar irradiation of preparations
Text: By way of example, the changes under irradiation of a base preparation (water-in-oil emulsion) containing the compounds obtained in the above examples, i.e. compound C10 and compound O10, are compared with that of the same preparation containing Parsol 1789 (mass % equivalent for each screening agent).
By way of example, the chosen preparations may be composed as follows:
Glycasil L 0.19%, butyl paraben 0.3%, beeswax 4%, PEG-30 dipolyhydroxystearate 3%, dicapryl carbonate 10%, polyglyceryl-3-diisostearate 1.5%, water 78.64%, xanthan gum 1%, Na2EDTA 0.2%, NaCI 1%; methyl paraben 0.17%
To this common base is added, depending on the case, the compounds C10 or O10 or Parsol 1789 in equivalent mass %. 15 to 20 mg of these preparations are spread onto a quartz slide and the UVA absorbance of the slide is monitored over time under solar irradiation (in the month of June at 43° latitude north between 13.00 h and 16.00 h, mean flux of the solar UV radiation: 4 mW/cm^2, Oriel 70380 UV Radiometer—response between 280 nm and 400 nm with a maximum at 370 nm)). The absorbance at 356 nm of the plate with Parsol 1789 decreases by 51% in 1 hour and by 73% in 2 hours. In the same time, the plates that received compound O10 have an absorbance that increases by 16% in 1 hour and 19% in 2 hours. […]

[3] = UV absorption (absorption maximum, molar extinction coefficient) in solution; type: physicochemical
Text: As an illustration of these ultraviolet-absorbing capacities, measurements were taken for two dibenzoylmethane derivatives according to the invention: • for a compound of formula (I) in which R1, R′1, R2, R′2, R3, R′3, R4, R′4 and R′5 each represent a hydrogen atom and R5 represents a saturated linear acyclic carbon-based chain containing 10 carbon atoms, the absorption maximum is (in solution in acetonitrile) at 263 nm with a molar extinction coefficient of 20 000 I.cm^−1.mol^−1. This compound will be referred to hereinbelow as compound C10; • for a compound of formula (I) in which R1, R′1, R2, R′2, R3, R′3, R4, R′4 and R5 each represent a hydrogen atom and R′5 represents a saturated linear acyclic carbon-based chain containing 10 carbon atoms, the absorption maximum (in solution in acetonitrile) is at 302 nm with a molar extinction coefficient of 17 000 I.cm^−1.mol^−1.
This is likewise the case for compound C10. Furthermore, in organized medium, these two compounds, subjected to ultraviolet radiation, undergo a shift of their maximum absorbance wavelength from UVB to UVA, thus causing the same effect as organization of the system. As a result, the maximum shift of the absorption bands towards UVA is obtained by placing these compounds in organized medium under irradiation, as is the case for an antisun cosmetic preparation under the normal conditions of its use. Irradiation of the preparation amplifies the phenomenon induced by the medium in which the compounds are present. There are therefore two screening molecules present, the absorbing power of which appears in its entirety only when they are subjected to ultraviolet exposure, in an organized medium. The protection capacity of a preparation containing them should thus increase during exposure, rather than decrease, which is the case for preparations containing Parsol 1789 as sole UV-screening agent. This increase in the absorbance at the start of exposure makes it possible to maintain a maximum level of protection for longer.
The NMR spectra were acquired using a Bruker ARX 400 MHz machine. […]

| Structure (SMILES) | maximum absorption efficacy (wavelength) [1] | Variation in the absorbance at 356 nm ([2]; Irradiation 1 hour solar UV) | Variation in the absorbance at 356 nm ([2]; Irradiation 2 hours solar UV) | decrease in UVA absorbance ([2]; after 2 hours solar irradiation) | decrease of the absorbance at 356 nm ([2]; in 1 hour solar irradiation) | decrease in UVA absorbance ([2]; in 1 hour solar irradiation) | decrease of the absorbance at 356 nm ([2]; in 2 hours solar irradiation) | absorption maximum ([3]; in solution in acetonitrile) | molar extinction coefficient ([3]; in solution in acetonitrile, at the absorption maximum) | absorption maximum in the UVA range (solvatochromy) ([3]; organized solvents, e.g. micellar solutions of sodium dodecyl sulfate) | absorbance after 2 hours of exposure to sunlight versus initial absorbance ([2]; 2 hours of solar irradiation, compared with before irradiation) | absorbance change during the first hour of exposure to sunlight ([2]; first hour of solar irradiation) | decrease of the absorbance during the second hour ([2]; relative to the maximum achieved after 1 hour of irradiation) | photostability compared with Parsol 1789 [2] |
| --- | --- | --- | --- | --- | --- | --- | --- | --- | --- | --- | --- | --- | --- | --- |
| COc1ccc(C(=O)CC(=O)c2ccc(C(C)(C)C)cc2)cc1 [Parsol 1789, 4-tert-butyl-4′-methoxydibenzoylmethane, reference compound] | about 340 nm | −51% | −73% | 73% | 51% | 51% | 73% |  |  |  |  |  |  |  |
| CCCCCCCCCCC(C(=O)c1ccc(OC)cc1)C(=O)c1ccc(C(C)(C)C)cc1 (centres unmarked) [compound C10, 3-(4-tert-butylphenyl)-2-decanyl-1-(4-methoxyphenyl)propane-1,3-dione] |  | +400% | +264% |  |  |  |  | 263 nm | 20 000 I.cm^−1.mol^−1 | about 360 nm | remains markedly higher than its initial absorbance | increases greatly | 27% | much more photostable than Parsol 1789 |
| CCCCCCCCCCO/C(=C\C(=O)c1ccc(OC)cc1)c1ccc(C(C)(C)C)cc1 [compound O10, 3-(4-tert-butylphenyl)-3-decanoxy-1-(4-methoxy-phenyl) prop-2-ene-1-one] |  |  |  |  |  |  |  |  |  |  |  |  |  | much more photostable than Parsol 1789 |
